Measured values taken from the NIST ThermoML archive (doi:10.1016/j.jct.2012.03.002).
Numbers after ± are expanded uncertainties.

Assays:
[1] = refractive index (Na D-line) (dimensionless); details: 298.15 K; 101 kPa; Liquid; Standard Abbe refractometry
[2] = 298.15 K, 101 kPa, Liquid; for viscosity: Capillary tube (Ostwald / Ubbelohde) method; for mass density: Vibrating tube method
[3] = refractive index (Na D-line) (dimensionless); cn = amount concentration of the nth substance listed, in mol/dm3; details: 298.15 K, 101 kPa, Liquid, Standard Abbe refractometry
[4] = refractive index (Na D-line) (dimensionless); wn = mass fraction of the nth substance listed; details: 298.15 K, 101 kPa, Liquid, Standard Abbe refractometry
[5] = wn = mass fraction of the nth substance listed; details: 298.15 K, 101 kPa, Liquid; for viscosity: Capillary tube (Ostwald / Ubbelohde) method; for mass density: Vibrating tube method
[6] = cn = amount concentration of the nth substance listed, in mol/dm3; details: 298.15 K, 101 kPa, Liquid, Alternating current cell with electrodes

O=[N+]([O-])c1ccccc1 [nitrobenzene]
Details	mass density [kg/m3]	refractive index	viscosity [mPa·s]
[1]	–	1.5493 ± 0.0008	–
[2]	1197.7 ± 1.1	–	1.809 ± 0.039

O=[N+]([O-])c1ccccc1 [nitrobenzene] + [Na+].c1ccc([B-](c2ccccc2)(c2ccccc2)c2ccccc2)cc1
Details	refractive index
[3], c2 = 0	1.5493 ± 0.0008

O=[N+]([O-])c1ccccc1 [nitrobenzene] + C[N+](=O)[O-]
w2 = 0
Details	mass density [kg/m3]	refractive index	viscosity [mPa·s]
[4]	–	1.5493 ± 0.0008	–
[5]	1197.7 ± 1.1	–	1.809 ± 0.039

C[N+](=O)[O-] [nitromethane] + O=[N+]([O-])c1ccccc1
Details	mass density, [5] [kg/m3]	refractive index, [4]	viscosity, [5] [mPa·s]
w1 = 0.25	1178.4 ± 1.1	1.5051 ± 0.0008	0.918 ± 0.02
w1 = 0.5	1161.1 ± 1.2	1.4623 ± 0.0008	0.827 ± 0.018
w1 = 0.75	1144.7 ± 1.3	1.4201 ± 0.0009	0.745 ± 0.017
w1 = 1	1128.8 ± 1.4	1.3799 ± 0.0009	0.614 ± 0.014

[Na+].c1ccc([B-](c2ccccc2)(c2ccccc2)c2ccccc2)cc1 [sodium tetraphenylboron] + O=[N+]([O-])c1ccccc1
Details	molar conductivity [S·m2/mol]	refractive index
[3], c1 = 0.0042	–	1.5498 ± 0.0008
[3], c1 = 0.0168	–	1.5506 ± 0.0008
[3], c1 = 0.0295	–	1.5511 ± 0.0008
[3], c1 = 0.0423	–	1.5518 ± 0.0008
[3], c1 = 0.0552	–	1.5526 ± 0.0008
[6], c1 = 0.001579	0.00273 ± 6e-06	–
[6], c1 = 0.002187	0.002689 ± 6e-06	–
[6], c1 = 0.002707	0.00266 ± 6e-06	–
[6], c1 = 0.003159	0.002634 ± 6e-06	–
[6], c1 = 0.003902	0.002597 ± 6e-06	–
[6], c1 = 0.004489	0.002572 ± 6e-06	–
[6], c1 = 0.004964	0.002553 ± 6e-06	–
[6], c1 = 0.005966	0.002516 ± 6e-06	–
[6], c1 = 0.006419	0.0025 ± 6e-06	–
[6], c1 = 0.006844	0.002482 ± 6e-06	–
[6], c1 = 0.00722	0.002471 ± 6e-06	–
[6], c1 = 0.007448	0.002463 ± 6e-06	–

C[N+](=O)[O-] [nitromethane]
Details	mass density [kg/m3]	refractive index	viscosity [mPa·s]
[1]	–	1.3799 ± 0.0009	–
[2]	1128.8 ± 1.4	–	0.614 ± 0.014

[Na+].c1ccc([B-](c2ccccc2)(c2ccccc2)c2ccccc2)cc1 [sodium tetraphenylboron] + C[N+](=O)[O-]
Details	molar conductivity [S·m2/mol]	refractive index
[3], c1 = 0.0044	–	1.3803 ± 0.0009
[3], c1 = 0.0178	–	1.3811 ± 0.0009
[3], c1 = 0.0313	–	1.3819 ± 0.0009
[3], c1 = 0.0449	–	1.3826 ± 0.0009
[3], c1 = 0.0586	–	1.3837 ± 0.0009
[6], c1 = 0.001163	0.008583 ± 6e-06	–
[6], c1 = 0.002132	0.008413 ± 6e-06	–
[6], c1 = 0.002952	0.008296 ± 6e-06	–
[6], c1 = 0.003655	0.008195 ± 6e-06	–
[6], c1 = 0.004797	0.008057 ± 6e-06	–
[6], c1 = 0.005686	0.007972 ± 6e-06	–
[6], c1 = 0.006397	0.007909 ± 6e-06	–
[6], c1 = 0.006701	0.007878 ± 6e-06	–
[6], c1 = 0.007231	0.007825 ± 6e-06	–
[6], c1 = 0.007676	0.007789 ± 6e-06	–
[6], c1 = 0.008055	0.00776 ± 6e-06	–
[6], c1 = 0.008382	0.007739 ± 6e-06	–

C[N+](=O)[O-] [nitromethane] + [Na+].c1ccc([B-](c2ccccc2)(c2ccccc2)c2ccccc2)cc1
Details	refractive index
[3], c2 = 0	1.3799 ± 0.0009
